Data taken from patent US20130012432A1, “Peptides for Treatment of Obesity” (Novo Nordisk A/S, priority 2010, published 2013).
Values after ≈ are worked out from the molar mass of the structure shown. Positions of bridges follow the written chain, without caps; N, C: chain ends. Non-standard residues stand in square brackets, D forms with d. Residues, ends and D or L forms follow the SMILES beside them. Groups on a side chain read outwards from the residue. *: point of attachment. Palmitoyl(16-(5-tetrazolyl)) = O=C(CCCCCCCCCCCCCCCc1nnn[nH]1)*; Lys(CH2CO2H)2 = N[C@@H](CCCCN(CC(=O)O)CC(=O)O)C(=O)O; C18 diacid = O=C(O)CCCCCCCCCCCCCCCCC(=O)*; C16 diacid = O=C(O)CCCCCCCCCCCCCCC(=O)*; Orn = NCCC[C@H](N)C(=O)O; Dab = NCC[C@H](N)C(=O)O; Dap = NC[C@H](N)C(=O)O; AEEA = NCCOCCOCC(=O)O

Assay: physchem
Protocol: From a stock solution in vehicle, either H2O or 10 mM phosphate, containing 1 mg (as weighed) compound per ml, 8-11 aliquots are withdrawn and pH-adjusted individually with HCl/NaOH, to cover the whole pH range.

| Compound | solubility (pH 6, Solubility Conc.) [µM] | solubility (pH 7, Solubility Conc.) [µM] | solubility (pH 7.3, Solubility Conc.) [µM] | solubility (pH 7.4, Solubility Conc.) [µM] | solubility (pH 7.5, Solubility Conc.) [µM] | solubility (pH 7.7, Solubility Conc.) [µM] | solubility (pH 5.9, Solubility Conc.) [µM] | solubility (pH 6.4, Solubility Conc.) [µM] | solubility (pH 7.6, Solubility Conc.) [µM] | solubility (pH 7.9, Solubility Conc.) [µM] | solubility (pH 6.5, Solubility Conc.) [µM] | solubility (pH 7.1, Solubility Conc.) [µM] | solubility (pH 8.1, Solubility Conc.) [µM] | solubility (pH 6.7, Solubility Conc.) [µM] | solubility (pH 7.2, Solubility Conc.) [µM] | solubility (pH 6.8, Solubility Conc.) [µM] | further results |
| --- | --- | --- | --- | --- | --- | --- | --- | --- | --- | --- | --- | --- | --- | --- | --- | --- | --- |
| CC(=O)N[C@H]1CCNC(=O)C[C@@H](C(=O)N2CCC[C@H]2C(=O)N2CCC[C@H]2C(=O)N[C@@H](CCCNC(=N)N)C(=O)N[C@@H](CC(=O)O)C(=O)N[C@@H](CCCCN(CC(=O)O)CC(=O)O)C(=O)N[C@@H](CCCCNC(=O)COCCOCCNC(=O)CCCCCCCCCCCCCCCc2nnn[nH]2)C(N)=O)NC(=O)[C@H](Cc2c[nH]c3ccccc23)NC(=O)[C@H](CCCNC(=N)N)NC(=O)[C@@H](Cc2ccccc2)NC(=O)[C@H](Cc2c[nH]cn2)NC1=O [Example 25, Ac-c[Dab-His-D-Phe-Arg-Trp-Asp]-Pro-Pro-Arg-Asp-Lys(biscarboxymethyl)-Lys[(2-{2-[16-(tetrazol-5-yl)hexadecanoylamino]ethoxy}ethoxy)acetyl]-NH2] (Ac-[Dab]H[dF]RWDPPRD[Lys(CH2CO2H)2]K([AEEA-Palmitoyl(16-(5-tetrazolyl))])-NH2; lactam 1-6) | 24 (≈ 52.1 µg/mL) | 133 (≈ 289 µg/mL) | 439 (≈ 954 µg/mL) | 472 (≈ 1030 µg/mL) | 479 (≈ 1040 µg/mL) | 471 (≈ 1020 µg/mL) | – | – | – | – | – | – | – | – | – | – | solubility (pH 6.3, Solubility Conc.): 34 µM (≈ 73.9 µg/mL); solubility (pH 8, Solubility Conc.): 498 µM (≈ 1080 µg/mL) |
| CC(=O)N[C@H]1CC(=O)NCC[C@@H](C(=O)N2CCC[C@H]2C(=O)N2CCC[C@H]2C(=O)N[C@@H](CCCNC(=N)N)C(=O)N[C@@H](CC(=O)O)C(=O)N[C@@H](CCCCN(CC(=O)O)CC(=O)O)C(=O)N[C@@H](CCCCNC(=O)COCCOCCNC(=O)CCCCCCCCCCCCCCCc2nnn[nH]2)C(N)=O)NC(=O)[C@H](Cc2c[nH]c3ccccc23)NC(=O)[C@H](CCCNC(=N)N)NC(=O)[C@@H](Cc2ccccc2)NC(=O)[C@H](Cc2c[nH]cn2)NC1=O [Example 30, Ac-c[Asp-His-D-Phe-Arg-Trp-Dab]-Pro-Pro-Arg-Asp-Lys(biscarboxymethyl)-Lys[(2-{2-[16-(tetrazol-5-yl)hexadecanoylamino]ethoxy}ethoxy)acetyl]-NH2] (Ac-DH[dF]RW[Dab]PPRD[Lys(CH2CO2H)2]K([AEEA-Palmitoyl(16-(5-tetrazolyl))])-NH2; lactam 1-6) | – | 144 (≈ 313 µg/mL) | 377 (≈ 819 µg/mL) | – | 478 (≈ 1040 µg/mL) | – | 24 (≈ 52.1 µg/mL) | 37 (≈ 80.4 µg/mL) | 493 (≈ 1070 µg/mL) | 497 (≈ 1080 µg/mL) | – | – | – | – | – | – | – |
| CC(=O)N[C@H]1CNC(=O)C[C@@H](C(=O)N2CCC[C@H]2C(=O)N2CCC[C@H]2C(=O)N[C@@H](CCCNC(=N)N)C(=O)N[C@@H](CC(=O)O)C(=O)N[C@@H](CCCCN(CC(=O)O)CC(=O)O)C(=O)N[C@@H](CCCCNC(=O)COCCOCCNC(=O)CCCCCCCCCCCCCCCc2nnn[nH]2)C(N)=O)NC(=O)[C@H](Cc2c[nH]c3ccccc23)NC(=O)[C@H](CCCNC(=N)N)NC(=O)[C@@H](Cc2ccccc2)NC(=O)[C@H](Cc2c[nH]cn2)NC1=O [Example 36, Ac-c[Dap-His-D-Phe-Arg-Trp-Asp]-Pro-Pro-Arg-Asp-Lys(biscarboxymethyl)-Lys[(2-{2-[16-(tetrazol-5-yl)hexadecanoylamino]ethoxy}ethoxy)acetyl]-NH2] (Ac-[Dap]H[dF]RWDPPRD[Lys(CH2CO2H)2]K([AEEA-Palmitoyl(16-(5-tetrazolyl))])-NH2; lactam 1-6) | 18 (≈ 38.9 µg/mL) | – | – | 261 (≈ 563 µg/mL) | 488 (≈ 1050 µg/mL) | – | – | – | 504 (≈ 1090 µg/mL) | 514 (≈ 1110 µg/mL) | 28 (≈ 60.4 µg/mL) | 87 (≈ 188 µg/mL) | 505 (≈ 1090 µg/mL) | – | – | – | solubility (pH 5.7, Solubility Conc.): 17 µM (≈ 36.7 µg/mL) |
| CC(=O)N[C@H]1CCCNC(=O)C[C@@H](C(=O)N2CCC[C@H]2C(=O)N2CCC[C@H]2C(=O)N[C@@H](CCCNC(=N)N)C(=O)N[C@@H](CCC(=O)O)C(=O)N[C@@H](CCCCN(CC(=O)O)CC(=O)O)C(=O)N[C@@H](CCCCNC(=O)COCCOCCNC(=O)CCCCCCCCCCCCCCC(=O)O)C(N)=O)NC(=O)[C@H](Cc2c[nH]c3ccccc23)NC(=O)[C@H](CCCNC(=N)N)NC(=O)[C@@H](Cc2ccccc2)NC(=O)[C@H](Cc2c[nH]cn2)NC1=O [Example 42, Ac-c[Orn-His-D-Phe-Arg-Trp-Asp]-Pro-Pro-Arg-Glu-Lys(biscarboxymethyl)-Lys({2-[2-(15-carboxypentadecanoylamino)ethoxy]ethoxy}acetyl)-NH2] (Ac-[Orn]H[dF]RWDPPRE[Lys(CH2CO2H)2]K([AEEA-C16 diacid])-NH2; lactam 1-6) | – | 449 (≈ 971 µg/mL) | – | – | 441 (≈ 954 µg/mL) | – | – | 364 (≈ 787 µg/mL) | – | 476 (≈ 1030 µg/mL) | – | – | 417 (≈ 902 µg/mL) | 421 (≈ 910 µg/mL) | 438 (≈ 947 µg/mL) | – | solubility (pH 4.9, Solubility Conc.): 153 µM (≈ 331 µg/mL); solubility (pH 5.8, Solubility Conc.): 240 µM (≈ 519 µg/mL) |
| CC(=O)N[C@H]1CCC(=O)NCCC[C@@H](C(=O)N2CCC[C@H]2C(=O)N2CCC[C@H]2C(=O)N[C@@H](Cc2c[nH]cn2)C(=O)N[C@@H](CC(=O)O)C(=O)N[C@@H](CCCCN(CC(=O)O)CC(=O)O)C(=O)N[C@@H](CCCCNC(=O)COCCOCCNC(=O)CCCCCCCCCCCCCCCc2nnn[nH]2)C(N)=O)NC(=O)[C@H](Cc2c[nH]c3ccccc23)NC(=O)[C@H](CCCNC(=N)N)NC(=O)[C@@H](Cc2ccccc2)NC(=O)[C@H](Cc2c[nH]cn2)NC1=O [Example 43, Ac-c[Glu-His-D-Phe-Arg-Trp-Orn]-Pro-Pro-His-Asp-Lys(biscarboxymethyl)-Lys[(2-{2-[16-(tetrazol-5-yl)hexadecanoylamino]ethoxy}ethoxy)acetyl]-NH2] (Ac-EH[dF]RW[Orn]PPHD[Lys(CH2CO2H)2]K([AEEA-Palmitoyl(16-(5-tetrazolyl))])-NH2; lactam 1-6) | – | – | – | 506 (≈ 1100 µg/mL) | – | 487 (≈ 1060 µg/mL) | 27 (≈ 58.9 µg/mL) | – | – | 490 (≈ 1070 µg/mL) | 75 (≈ 164 µg/mL) | – | 493 (≈ 1080 µg/mL) | 315 (≈ 687 µg/mL) | 478 (≈ 1040 µg/mL) | 478 (≈ 1040 µg/mL) | – |
| CC(=O)N[C@H]1CCCNC(=O)C[C@@H](C(=O)N2CCC[C@H]2C(=O)N2CCC[C@H]2C(=O)N[C@@H](Cc2c[nH]cn2)C(=O)N[C@@H](CCC(=O)O)C(=O)N[C@@H](CCCCN(CC(=O)O)CC(=O)O)C(=O)N[C@@H](CCCCNC(=O)COCCOCCNC(=O)CCCCCCCCCCCCCCCCC(=O)O)C(N)=O)NC(=O)[C@H](Cc2c[nH]c3ccccc23)NC(=O)[C@H](CCCNC(=N)N)NC(=O)[C@@H](Cc2ccccc2)NC(=O)[C@H](Cc2c[nH]cn2)NC1=O [Example 46, Ac-c[Orn-His-D-Phe-Arg-Trp-Asp]-Pro-Pro-His-Glu-Lys(biscarboxymethyl)-Lys({2-[2-(17-carboxyheptadecanoylamino)ethoxy]ethoxy}acetyl)-NH2] (Ac-[Orn]H[dF]RWDPPHE[Lys(CH2CO2H)2]K([AEEA-C18 diacid])-NH2; lactam 1-6) | – | – | – | – | – | – | – | – | 509 (≈ 1110 µg/mL) | – | – | 494 (≈ 1070 µg/mL) | – | 422 (≈ 916 µg/mL) | – | 471 (≈ 1020 µg/mL) | solubility (pH 5, Solubility Conc.): 25 µM (≈ 54.3 µg/mL); solubility (pH 5.4, Solubility Conc.): 24 µM (≈ 52.1 µg/mL); solubility (pH 6.1, Solubility Conc.): 47 µM (≈ 102 µg/mL); solubility (pH 6.6, Solubility Conc.): 160 µM (≈ 347 µg/mL); solubility (pH 7.8, Solubility Conc.): 507 µM (≈ 1100 µg/mL) |
